In general, EC50 refers to the concentration at which the effect is half-maximal.

Holding throughout (format): cell-based
In one test the test system is gACh3.0. As to the kind of experiment: Fluorescence imaging. The following applies: read-out: EC50 (μM), normalized dose-response curves, HEK293T; n = 3.
The next test has as its system iAChSnFR. Briefly: Fluorescence imaging. The following applies: read-out: EC50 (μM), normalized dose-response curves, HEK293T; n = 3.
The next test relates to G protein pathway. As to the kind of experiment: Luciferase complementation assay. The following applies: ACh 0.1 nM to 100 μM.
The next test concerns β-arrestin pathway. Briefly: Tango assay. To be noted: ACh 0.01 nM to 100 μM.

With `CC(=O)OCC[N+](C)(C)C` [ACh, acetylcholine], the concentration giving a half-maximal response (EC50) with gACh3.0 stood at 2.2 µM; with iAChSnFR, 8.8 µM.
For “wild-type human M3R: wild-type human type 3 muscarinic ACh receptor, positive control for downstream coupling”, in the test with G protein pathway, the “coupling to G protein pathway” value is “robust coupling”. Besides, the “coupling to β-arrestin pathway” value with β-arrestin pathway is reported as “robust coupling”.
